This note sets out measurements from PubChem BioAssay (NCI).

Structures are written as SMILES.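 Cultured in 96-well plates, cells were exposed to test compound for 48 hours across five concentrations. At the TGI there is no net growth.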

Test systems include 786-0 renal; ACHN renal; CCRF-CEM leukemia; HOP-92 NSCLC; KM12 colon; M14 melanoma; MOLT-4 leukemia; NCI-H522 lung; OVCAR-5 ovarian; SF-268 CNS; SF-539 CNS; SK-OV-3 ovarian; U251 CNS.
Common to all, as to assay: DTP human tumour cell line panel, 48 h

In general, TGI refers to the concentration at which net growth stops. A high value points to less potent growth arrest. Regarding `O=C(CC(C(=O)c1ccoc1)c1ccco1)c1ccco1` (stereo unspecified), the total growth inhibition concentration (TGI) in the assay on 786-0 renal, in the assay on ACHN renal, in the assay with CCRF-CEM leukemia, in the assay on HOP-92 NSCLC, with KM12 colon and in the assay with M14 melanoma was over 100 µM throughout. The total growth inhibition concentration (TGI) in the assay with MOLT-4 leukemia, in the assay on NCI-H522 lung, in the assay with OVCAR-5 ovarian, with SF-268 CNS, in the assay with SF-539 CNS and in the assay with SK-OV-3 ovarian was over 100 µM each time. Further, the TGI in the assay on U251 CNS is over 100 µM.

In the case of `Nc1nc(Cl)cc(Nc2cc(Cl)cc(Cl)c2)n1`, the concentration for total growth inhibition (TGI) with 786-0 renal came out at 33.7 µM; in the assay with ACHN renal, 56.8 µM; in the assay with CCRF-CEM leukemia, 51.7 µM; in the assay with HOP-92 NSCLC, 40.3 µM; in the assay on KM12 colon, 37.7 µM; in the assay with M14 melanoma, 35.4 µM. Further, the TGI with MOLT-4 leukemia is 47.6 µM; in the assay on NCI-H522 lung, 24.3 µM; in the assay with OVCAR-5 ovarian, 76.7 µM; in the assay on SF-268 CNS, 40.4 µM; in the assay with SF-539 CNS it was 33.9 µM; in the assay on SK-OV-3 ovarian, 35.8 µM. Moreover, the TGI in the assay on U251 CNS came to 38.4 µM.

On to `Clc1ccc(C2NN=C3c4ccccc4OCC32)cc1` (stereo unspecified), for which the total growth inhibition concentration (TGI) with 786-0 renal is 29.5 µM; in the assay on ACHN renal, over 100 µM; in the assay on CCRF-CEM leukemia, over 74.8 µM; in the assay with HOP-92 NSCLC it was over 100 µM; in the assay with KM12 colon, over 37.9 µM; in the assay on M14 melanoma it was over 45.1 µM. Besides, the TGI is 26.9 µM in the assay with MOLT-4 leukemia; 3.63 µM with NCI-H522 lung; over 100 µM with OVCAR-5 ovarian; over 81 µM with SF-268 CNS; 7.17 µM with SF-539 CNS; over 100 µM with SK-OV-3 ovarian. The compound also displayed a TGI with U251 CNS of over 56.8 µM.

For the compound `Cc1ccc(Nc2cc(=O)[nH]c(=S)[nH]2)cc1`, the total growth inhibition concentration (TGI) in the assay with 786-0 renal, with ACHN renal, with CCRF-CEM leukemia, with HOP-92 NSCLC, in the assay on KM12 colon and with M14 melanoma was over 100 µM in each case. The concentration for total growth inhibition (TGI) in the assay with MOLT-4 leukemia, with NCI-H522 lung, in the assay with OVCAR-5 ovarian, in the assay on SF-268 CNS, with SF-539 CNS and with SK-OV-3 ovarian was over 100 µM each time. The concentration for total growth inhibition (TGI) in the assay with U251 CNS was over 100 µM.

With `C#C[C@]1(O)CC[C@H]2[C@@H]3CCc4cc(OC(=O)c5cccc6cc7ccccc7nc56)ccc4[C@H]3CC[C@@]21C`, the concentration for total growth inhibition (TGI) was 96.4 µM in the assay on 786-0 renal; over 100 µM in the assay on ACHN renal; over 100 µM in the assay on CCRF-CEM leukemia; over 100 µM in the assay on HOP-92 NSCLC; 50.6 µM in the assay on KM12 colon; over 100 µM in the assay on M14 melanoma. The concentration for total growth inhibition (TGI) was over 100 µM in the assay on MOLT-4 leukemia; 50.5 µM in the assay on NCI-H522 lung; over 100 µM with OVCAR-5 ovarian; over 100 µM with SF-268 CNS; over 100 µM in the assay with SF-539 CNS; over 100 µM in the assay with SK-OV-3 ovarian. This compound had a TGI with U251 CNS of over 100 µM.

Take `N#CC1(C#N)NC(c2ccsc2)C(C#N)(C#N)NC1c1ccsc1` (stereo unspecified): the TGI with 786-0 renal, in the assay on ACHN renal, in the assay with CCRF-CEM leukemia, in the assay on HOP-92 NSCLC, with KM12 colon and with M14 melanoma was over 100 µM in each case. Further, the total growth inhibition concentration (TGI) with MOLT-4 leukemia, in the assay with NCI-H522 lung, with OVCAR-5 ovarian, in the assay on SF-268 CNS, in the assay on SF-539 CNS and in the assay on SK-OV-3 ovarian was over 100 µM in each case. In the assay with U251 CNS, this compound displayed a total growth inhibition concentration (TGI) of over 100 µM.

Turning to `O=[N+]([O-])c1ccc2nc(/C=C(\O)c3ccc(F)cc3)c(/C=C(\O)c3ccc(F)cc3)nc2c1`, the TGI in the assay with 786-0 renal was 39.7 µM; with ACHN renal, 36.6 µM; with CCRF-CEM leukemia it was 26.4 µM; with HOP-92 NSCLC it was over 100 µM; in the assay with KM12 colon it was over 100 µM; with M14 melanoma it was over 100 µM. Also, the TGI in the assay on MOLT-4 leukemia was 43.5 µM; in the assay with NCI-H522 lung, over 100 µM; in the assay on OVCAR-5 ovarian, over 100 µM; in the assay with SF-268 CNS, over 100 µM; in the assay on SF-539 CNS, 56.3 µM; with SK-OV-3 ovarian it was 47.5 µM. Also, the total growth inhibition concentration (TGI) in the assay with U251 CNS amounted to 70.5 µM.

As for `Cc1cccc(NC(=S)N=Nc2c(O)[nH]c3ccccc23)c1`, the concentration for total growth inhibition (TGI) with 786-0 renal, in the assay with ACHN renal, with CCRF-CEM leukemia, with HOP-92 NSCLC, in the assay on KM12 colon and in the assay on M14 melanoma was over 100 µM throughout. For the same compound, the TGI is over 100 µM in the assay on MOLT-4 leukemia; over 100 µM with NCI-H522 lung; over 100 µM with OVCAR-5 ovarian; 58.7 µM in the assay on SF-268 CNS; over 100 µM in the assay with SF-539 CNS; over 100 µM in the assay on SK-OV-3 ovarian. The same compound came in with a total growth inhibition concentration (TGI) in the assay with U251 CNS of over 100 µM.

Take `O[C@@H]1C[C@@H]2N[C@@](O)(C[C@@H]2O)[C@H]1O`: the concentration for total growth inhibition (TGI) in the assay with 786-0 renal, in the assay with ACHN renal, with CCRF-CEM leukemia, in the assay with HOP-92 NSCLC, in the assay on KM12 colon and in the assay on M14 melanoma was over 100 µM in each case. The TGI in the assay with MOLT-4 leukemia, in the assay on NCI-H522 lung, in the assay on OVCAR-5 ovarian, in the assay with SF-268 CNS, with SF-539 CNS and in the assay on SK-OV-3 ovarian was over 100 µM each time. The TGI with U251 CNS was over 100 µM.

Regarding `Cn1c2ccccc2c(=NNc2ccc(C(=O)O)cc2)c2ccccc21`, the TGI with 786-0 renal turned out to be 84.4 µM; with ACHN renal, 45.6 µM; in the assay on CCRF-CEM leukemia it was 40.5 µM; with HOP-92 NSCLC, 57.7 µM; with KM12 colon it was 50.3 µM; in the assay on M14 melanoma, 31.8 µM. Further, the TGI with MOLT-4 leukemia was 57.4 µM; in the assay with NCI-H522 lung, 27.2 µM; with OVCAR-5 ovarian, 48 µM; in the assay with SF-268 CNS it was 48 µM; with SF-539 CNS, 49.9 µM; in the assay on SK-OV-3 ovarian, 56.7 µM. In the assay on U251 CNS, the TGI was found to be 41 µM.

Regarding `Cc1c(NC(=S)Nc2ccc(Cl)cc2)c(=O)n(-c2ccccc2)n1C`, the concentration for total growth inhibition (TGI) in the assay on 786-0 renal, in the assay on ACHN renal, in the assay on CCRF-CEM leukemia, in the assay on HOP-92 NSCLC, with KM12 colon and in the assay on M14 melanoma was over 100 µM throughout. The TGI with MOLT-4 leukemia, in the assay with NCI-H522 lung, with OVCAR-5 ovarian, with SF-268 CNS, with SF-539 CNS and with SK-OV-3 ovarian was over 100 µM in each case. The compound further came in with a TGI in the assay with U251 CNS of over 100 µM.

Take `CSC1=C(c2ccc(Cl)cc2)SC(N2CCCCC2)N1c1ccc([N+](=O)[O-])cc1` (stereo unspecified): the TGI in the assay with 786-0 renal is over 100 µM; with ACHN renal, over 100 µM; with CCRF-CEM leukemia, over 100 µM; in the assay on HOP-92 NSCLC, 72.3 µM; in the assay with KM12 colon, over 100 µM; in the assay on M14 melanoma, over 100 µM. Also, the concentration for total growth inhibition (TGI) in the assay on MOLT-4 leukemia is 75.9 µM; in the assay on NCI-H522 lung, 63.3 µM; in the assay on OVCAR-5 ovarian, 65.9 µM; with SF-268 CNS, over 100 µM; in the assay on SF-539 CNS it was 56.5 µM; in the assay on SK-OV-3 ovarian, 81.9 µM. The total growth inhibition concentration (TGI) with U251 CNS was determined as 56.4 µM.

`COC(=O)c1c(C)cccc1CC1Cc2c(C)cccc2C1=O` (stereo unspecified): the TGI with 786-0 renal was over 100 µM; in the assay on ACHN renal, over 100 µM; in the assay with CCRF-CEM leukemia it was 90.2 µM; in the assay with HOP-92 NSCLC, 70.9 µM; in the assay on KM12 colon, 73.2 µM; in the assay on M14 melanoma, over 100 µM. Also, the TGI with MOLT-4 leukemia was 79.1 µM; in the assay with NCI-H522 lung, 57.8 µM; with OVCAR-5 ovarian it was over 100 µM; in the assay on SF-268 CNS, over 100 µM; with SF-539 CNS, over 100 µM; in the assay on SK-OV-3 ovarian it was over 100 µM. In addition, the TGI in the assay with U251 CNS is over 100 µM.

With `CNC(=S)N/N=C/c1cccc(C)n1`, the concentration for total growth inhibition (TGI) in the assay with 786-0 renal is 98.5 µM; in the assay on ACHN renal, over 96.5 µM; with CCRF-CEM leukemia it was over 73.6 µM; in the assay on HOP-92 NSCLC, over 100 µM; in the assay on KM12 colon, over 100 µM; with M14 melanoma, 47.8 µM. Further, the TGI in the assay on MOLT-4 leukemia was over 87 µM; in the assay on NCI-H522 lung, over 86.2 µM; in the assay on OVCAR-5 ovarian, over 100 µM; with SF-268 CNS, over 76 µM; in the assay with SF-539 CNS, 39.7 µM; with SK-OV-3 ovarian, over 100 µM. For the same compound, the concentration for total growth inhibition (TGI) with U251 CNS is over 100 µM.

On to `COc1ccc(N=C(Nc2ccc(OC)cc2)C(=Nc2ccc(OC)cc2)Nc2ccc(OC)cc2)cc1`, for which the total growth inhibition concentration (TGI) in the assay on 786-0 renal, in the assay with ACHN renal, in the assay on CCRF-CEM leukemia, in the assay on HOP-92 NSCLC, in the assay with KM12 colon and in the assay with M14 melanoma was over 100 µM throughout. Further, the total growth inhibition concentration (TGI) in the assay on MOLT-4 leukemia, in the assay with NCI-H522 lung, in the assay with OVCAR-5 ovarian, in the assay on SF-268 CNS, in the assay with SF-539 CNS and in the assay on SK-OV-3 ovarian was over 100 µM throughout. Further, in the assay with U251 CNS, the concentration for total growth inhibition (TGI) is over 100 µM.

`COc1ccc(CCNC(=O)Cc2cc(OC)c(OC)cc2CO)cc1OC`: the total growth inhibition concentration (TGI) in the assay on 786-0 renal, in the assay on ACHN renal, with CCRF-CEM leukemia, with HOP-92 NSCLC, in the assay on KM12 colon and with M14 melanoma was over 100 µM each time. The TGI in the assay with MOLT-4 leukemia, in the assay with NCI-H522 lung, in the assay with OVCAR-5 ovarian, in the assay on SF-268 CNS, in the assay on SF-539 CNS and in the assay on SK-OV-3 ovarian was over 100 µM throughout. For the same compound, the total growth inhibition concentration (TGI) in the assay on U251 CNS is over 100 µM.

As to `CC(C)=CCC/C(C)=C/CC/C(C)=C/CC/C(C)=C/CC/C(C)=C\CC/C(C)=C/CC/C(C)=C/CC/C(C)=C/Cc1cc(O)ccc1O`, the total growth inhibition concentration (TGI) was 4.09 µM in the assay with 786-0 renal; over 39.8 µM in the assay with ACHN renal; over 34.9 µM in the assay on CCRF-CEM leukemia; over 32.8 µM with HOP-92 NSCLC; 2.53 µM in the assay on KM12 colon; 1.25 µM in the assay with M14 melanoma. In addition, the TGI turned out to be 8.34 µM with MOLT-4 leukemia; 4.34 µM in the assay with NCI-H522 lung; 36.4 µM with OVCAR-5 ovarian; 5.21 µM in the assay on SF-268 CNS; 3.19 µM with SF-539 CNS; 15.6 µM in the assay with SK-OV-3 ovarian. Also, the TGI in the assay on U251 CNS was 4.06 µM.
